Assay results taken from ChEMBL document CHEMBL4229455, “Synthesis and anticancer activity of novel bisindolylhydroxymaleimide derivatives with potent GSK-3 kinase inhibition” (Bioorg Med Chem, 2018).

Tests used:
Format in all cases: functional
COLO 205 = experiment: Cytotoxicity against human COLO205 cells assessed as cell growth at 0.1 uM after 48 hrs by SRB assay relative to control; conditions: COLO 205, 48 h, read-out: Activity
SN12C [1] = experiment: Cytotoxicity against human SN12C cells after 48 hrs by SRB assay; conditions: for CC50: read-out: LC50 (the source's name)
HCT-15 [2] = experiment: Cytotoxicity against human HCT15 cells assessed as cell growth at 0.01 uM after 48 hrs by SRB assay relative to control; conditions: HCT-15, 48 h, read-out: Activity
HCT-15 [3] = experiment: Cytotoxicity against human HCT15 cells assessed as cell growth at 100 uM after 48 hrs by SRB assay relative to control; conditions: HCT-15, 48 h, read-out: Activity
HL-60(TB) = experiment: Cytotoxicity against human HL-60(TB) cells after 48 hrs by SRB assay; conditions: HL-60, 48 h
HOP-62 = experiment: Cytotoxicity against human HOP62 cells assessed as cell growth at 1 uM after 48 hrs by SRB assay relative to control; conditions: HOP-62, 48 h, read-out: Activity
NCI-H460 = experiment: Cytotoxicity against human NCI-H460 cells assessed as cell growth at 0.01 uM after 48 hrs by SRB assay relative to control; conditions: NCI-H460, 48 h, read-out: Activity
NCI-H226 [4] = experiment: Cytotoxicity against human NCI-H226 cells assessed as cell growth at 0.01 uM after 48 hrs by SRB assay relative to control; conditions: NCI-H226, 48 h, read-out: Activity
UACC-257 [5] = experiment: Cytotoxicity against human UACC257 cells assessed as cell growth at 0.01 uM after 48 hrs by SRB assay relative to control; conditions: UACC-257, 48 h, read-out: Activity
SNB-19 = experiment: Cytotoxicity against human SNB19 cells after 48 hrs by SRB assay; conditions: SNB-19, 48 h
SW-620 = experiment: Cytotoxicity against human SW620 cells assessed as cell growth at 0.1 uM after 48 hrs by SRB assay relative to control; conditions: SW-620, 48 h, read-out: Activity
UACC-257 [6] = experiment: Cytotoxicity against human UACC257 cells assessed as cell growth at 100 uM after 48 hrs by SRB assay relative to control; conditions: UACC-257, 48 h, read-out: Activity
A549 = experiment: Cytotoxicity against human A549 cells after 48 hrs by SRB assay; conditions: A549, 48 h; for CC50: read-out: LC50 (the source's name)
RXF 393 = experiment: Cytotoxicity against human RXF393 cells assessed as cell growth at 100 uM after 48 hrs by SRB assay relative to control; conditions: RXF 393, 48 h, read-out: Activity
A498 [7] = experiment: Cytotoxicity against human A498 cells assessed as cell growth at 100 uM after 48 hrs by SRB assay relative to control; conditions: A498, 48 h, read-out: Activity
ACHN [8] = experiment: Cytotoxicity against human ACHN cells after 48 hrs by SRB assay; conditions: for CC50: read-out: LC50 (the source's name)
HCC 2998 = experiment: Cytotoxicity against human HCC2998 cells assessed as cell growth at 0.1 uM after 48 hrs by SRB assay relative to control; conditions: HCC 2998, 48 h, read-out: Activity
CCRF-CEM = experiment: Cytotoxicity against human CCRF-CEM cells after 48 hrs by SRB assay
SK-MEL-5 = experiment: Cytotoxicity against human SK-MEL-5 cells assessed as cell growth at 1 uM after 48 hrs by SRB assay relative to control; conditions: SK-MEL-5, 48 h, read-out: Activity
LOX IMVI = experiment: Cytotoxicity against human LOXIMVI cells assessed as cell growth at 0.01 uM after 48 hrs by SRB assay relative to control; conditions: read-out: Activity
Malme-3M [9] = experiment: Cytotoxicity against human MALME-3M cells assessed as cell growth at 0.01 uM after 48 hrs by SRB assay relative to control; conditions: read-out: Activity
OVCAR-5 = experiment: Cytotoxicity against human OVCAR5 cells assessed as cell growth at 0.01 uM after 48 hrs by SRB assay relative to control; conditions: OVCAR-5, 48 h, read-out: Activity
NCI-H226 [10] = experiment: Cytotoxicity against human NCI-H226 cells assessed as cell growth at 1 uM after 48 hrs by SRB assay relative to control; conditions: NCI-H226, 48 h, read-out: Activity
HT-29 = experiment: Cytotoxicity against human HT-29 cells assessed as cell growth at 0.1 uM after 48 hrs by SRB assay relative to control; conditions: HT-29, 48 h, read-out: Activity
SNB-75 = experiment: Cytotoxicity against human SNB75 cells assessed as cell growth at 100 uM after 48 hrs by SRB assay relative to control; conditions: SNB-75, 48 h, read-out: Activity
ACHN [11] = experiment: Cytotoxicity against human ACHN cells assessed as cell growth at 0.1 uM after 48 hrs by SRB assay relative to control; conditions: read-out: Activity
A498 [12] = experiment: Cytotoxicity against human A498 cells after 48 hrs by SRB assay; conditions: A498, 48 h
SK-MEL-28 = experiment: Cytotoxicity against human SK-MEL-28 cells assessed as cell growth at 100 uM after 48 hrs by SRB assay relative to control; conditions: SK-MEL-28, 48 h, read-out: Activity
PC-3 = experiment: Cytotoxicity against human PC3 cells after 48 hrs by SRB assay; conditions: PC-3, 48 h
IGROV-1 = experiment: Cytotoxicity against human IGROV1 cells assessed as cell growth at 100 uM after 48 hrs by SRB assay relative to control; conditions: IGROV-1, 48 h, read-out: Activity
HCT-15 [13] = experiment: Cytotoxicity against human HCT15 cells assessed as cell growth at 1 uM after 48 hrs by SRB assay relative to control; conditions: HCT-15, 48 h, read-out: Activity
A498 [14] = experiment: Cytotoxicity against human A498 cells assessed as cell growth at 0.01 uM after 48 hrs by SRB assay relative to control; conditions: A498, 48 h, read-out: Activity
HOP-92 = experiment: Cytotoxicity against human HOP92 cells assessed as cell growth at 0.01 uM after 48 hrs by SRB assay relative to control; conditions: HOP-92, 48 h, read-out: Activity
SR = experiment: Cytotoxicity against human SR cells assessed as cell growth at 1 uM after 48 hrs by SRB assay relative to control; conditions: read-out: Activity
OVCAR-3 = experiment: Cytotoxicity against human OVCAR3 cells assessed as cell growth at 0.01 uM after 48 hrs by SRB assay relative to control; conditions: OVCAR-3, 48 h, read-out: Activity
SN12C [15] = experiment: Cytotoxicity against human SN12C cells assessed as cell growth at 0.01 uM after 48 hrs by SRB assay relative to control; conditions: read-out: Activity
Malme-3M [16] = experiment: Cytotoxicity against human MALME-3M cells assessed as cell growth at 1 uM after 48 hrs by SRB assay relative to control; conditions: read-out: Activity

## Cn1cc(C2=C(c3cn(C)c4ncccc34)C(=O)NC2=O)c2ccccc21
COLO 205
  growth at 0.1 µM: 109%
SN12C [1]
  GI50: 2.31 µM
  TGI: 16.2 µM
  CC50: > 100 µM
HCT-15 [2]
  growth at 0.01 µM: 100%
HCT-15 [3]
  growth at 100 µM: -6%
HL-60(TB)
  GI50: 4.05 µM
  TGI: 17.9 µM
HOP-62
  growth at 1 µM: 87%
NCI-H460
  growth at 0.01 µM: 97%
NCI-H226 [4]
  growth at 0.01 µM: 99%
UACC-257 [5]
  growth at 0.01 µM: 104%
SNB-19
  GI50: 6.31 µM
  TGI: 61.1 µM
SW-620
  growth at 0.1 µM: 96%
UACC-257 [6]
  growth at 100 µM: -12%
A549
  GI50: 3.49 µM
  TGI: 33.2 µM
  CC50: > 100 µM
RXF 393
  growth at 100 µM: -49%
A498 [7]
  growth at 100 µM: -49%
ACHN [8]
  GI50: 2.93 µM
  TGI: 26.2 µM
  CC50: > 100 µM
HCC 2998
  growth at 0.1 µM: 93%
CCRF-CEM
  GI50: 2.86 µM
  TGI: > 100 µM
SK-MEL-5
  growth at 1 µM: 89%
LOX IMVI
  growth at 0.01 µM: 101%
Malme-3M [9]
  growth at 0.01 µM: 109%
OVCAR-5
  growth at 0.01 µM: 98%
NCI-H226 [10]
  growth at 1 µM: 86%
HT-29
  growth at 0.1 µM: 107%
SNB-75
  growth at 100 µM: -51%
ACHN [11]
  growth at 0.1 µM: 99%
A498 [12]
  GI50: 0.32 µM
  TGI: 2.34 µM
SK-MEL-28
  growth at 100 µM: -24%
PC-3
  GI50: 3.72 µM
  TGI: 52.9 µM
IGROV-1
  growth at 100 µM: -10%
HCT-15 [13]
  growth at 1 µM: 84%
A498 [14]
  growth at 0.01 µM: 76%
HOP-92
  growth at 0.01 µM: 90%
SR
  growth at 1 µM: 51%
OVCAR-3
  growth at 0.01 µM: 107%
SN12C [15]
  growth at 0.01 µM: 89%
Malme-3M [16]
  growth at 1 µM: 110%

## N#CCCCCCn1cc(C2=C(c3cn(CCCCCC#N)c4ccccc34)C(=O)N(O)C2=O)c2ccccc21
COLO 205
  growth at 0.1 µM: 93%
SN12C [1]
  GI50: 8.47 µM
  TGI: > 100 µM
  CC50: > 100 µM
HCT-15 [2]
  growth at 0.01 µM: 93%
HCT-15 [3]
  growth at 100 µM: 1%
HL-60(TB)
  GI50: 2.54 µM
  LC50: > 100 µM
  TGI: 6.44 µM
HOP-62
  growth at 1 µM: 83%
NCI-H460
  growth at 0.01 µM: 104%
NCI-H226 [4]
  growth at 0.01 µM: 95%
UACC-257 [5]
  growth at 0.01 µM: 97%
SNB-19
  GI50: 4.36 µM
  LC50: > 100 µM
  TGI: > 100 µM
SW-620
  growth at 0.1 µM: 97%
UACC-257 [6]
  growth at 100 µM: -19%
A549
  GI50: 10.4 µM
  TGI: > 100 µM
  CC50: > 100 µM
RXF 393
  growth at 100 µM: -25%
A498 [7]
  growth at 100 µM: -1%
ACHN [8]
  GI50: 8.04 µM
  TGI: > 100 µM
  CC50: > 100 µM
HCC 2998
  growth at 0.1 µM: 101%
CCRF-CEM
  GI50: 2.73 µM
  LC50: > 100 µM
  TGI: > 100 µM
SK-MEL-5
  growth at 1 µM: 92%
LOX IMVI
  growth at 0.01 µM: 94%
Malme-3M [9]
  growth at 0.01 µM: 100%
OVCAR-5
  growth at 0.01 µM: 99%
NCI-H226 [10]
  growth at 1 µM: 89%
HT-29
  growth at 0.1 µM: 103%
SNB-75
  growth at 100 µM: -32%
ACHN [11]
  growth at 0.1 µM: 91%
A498 [12]
  GI50: 2.36 µM
  LC50: > 100 µM
  TGI: 86 µM
SK-MEL-28
  growth at 100 µM: 4%
PC-3
  GI50: 3.92 µM
  LC50: > 100 µM
  TGI: 74 µM
IGROV-1
  growth at 100 µM: -5%
HCT-15 [13]
  growth at 1 µM: 92%
A498 [14]
  growth at 0.01 µM: 84%
HOP-92
  growth at 0.01 µM: 97%
SR
  growth at 1 µM: 114%
OVCAR-3
  growth at 0.01 µM: 99%
SN12C [15]
  growth at 0.01 µM: 97%
Malme-3M [16]
  growth at 1 µM: 107%
